# How the values were obtained:
# Haemophilus influenzae = assay: In vitro antimicrobial activity against Haemophilus influenzae.; format: functional
# Streptococcus pyogenes = assay: In vitro antimicrobial activity against Streptococcus pyogenes C203; format: functional
# Staphylococcus aureus = assay: In vitro antimicrobial activity against Staphylococcus aureus X1; format: functional
# Streptococcus pneumoniae = assay: In vitro antimicrobial activity against Streptococcus pneumoniae; format: functional
# [1] = tested on: Staphylococcus epidermidis; assay: In vitro antimicrobial activity against Staphylococcus epidermidis EPI1; format: functional
# Enterococcus faecium = assay: In vitro antimicrobial activity against Streptococcus faecium X66; format: functional, streptococcus fae-cium
SMILES,MIC (Haemophilus influenzae) [µg/mL],MIC (Streptococcus pyogenes) [µg/mL],MIC (Staphylococcus aureus) [µg/mL],MIC (Streptococcus pneumoniae) [µg/mL],MIC [1] [µg/mL],MIC (Enterococcus faecium) [µg/mL]
CC[C@H]1OC(=O)C[C@@H](O)[C@H](C)[C@@H](O[C@@H]2O[C@H](C)[C@@H](O)[C@H](N(C)C)[C@H]2O)[C@@H](CCO[N+](=O)[O-])C[C@@H](C)C(=O)/C=C/C(C)=C/[C@@H]1CO[C@@H]1O[C@H](C)[C@@H](O)[C@@H](OC)[C@H]1OC,16,0.25,0.25,2,0.25,8
CC[C@H]1OC(=O)C[C@@H](O)[C@H](C)[C@@H](O[C@@H]2O[C@H](C)[C@@H](O[C@H]3C[C@@](C)(O)[C@@H](O)[C@H](C)O3)[C@H](N(C)C)[C@H]2O)[C@@H](CCOc2ccc(C=O)cc2)C[C@@H](C)C(=O)/C=C/C(C)=C/[C@@H]1CO[C@@H]1O[C@H](C)[C@@H](O)[C@@H](OC)[C@H]1OC,> 128,1,1,16,1,128
CC[C@H]1OC(=O)C[C@@H](O)[C@H](C)[C@@H](O[C@@H]2O[C@H](C)[C@@H](O[C@H]3C[C@@](C)(O)[C@@H](O)[C@H](C)O3)[C@H](N(C)C)[C@H]2O)[C@@H](CCNc2ccc(OC(C)=O)cc2)C[C@@H](C)C(=O)/C=C/C(C)=C/[C@@H]1CO[C@@H]1O[C@H](C)[C@@H](O)[C@@H](OC)[C@H]1OC,128,2,1,1,0.5,64
CC[C@H]1OC(=O)C[C@@H](O)[C@H](C)[C@@H](O[C@@H]2O[C@H](C)[C@@H](O)[C@H](N(C)C)[C@H]2O)[C@@H](CCOc2ccc(C=O)cc2)C[C@@H](C)C(=O)/C=C/C(C)=C/[C@@H]1CO[C@@H]1O[C@H](C)[C@@H](O)[C@@H](OC)[C@H]1OC,16,1,0.25,1,0.25,4
CC[C@H]1OC(=O)C[C@@H](O)[C@H](C)[C@@H](O[C@@H]2O[C@H](C)[C@@H](O[C@H]3C[C@@](C)(O)[C@@H](O)[C@H](C)O3)[C@H](N(C)C)[C@H]2O)[C@@H](CCO)C[C@@H](C)C(=O)/C=C/C(C)=C/[C@@H]1C,> 128,64,64,64,32,64

# Continued, values first:
MIC (Haemophilus influenzae) [µg/mL],MIC (Streptococcus pyogenes) [µg/mL],MIC (Staphylococcus aureus) [µg/mL],MIC (Streptococcus pneumoniae) [µg/mL],MIC [1] [µg/mL],MIC (Enterococcus faecium) [µg/mL],SMILES
64,8,8,16,16,64,CC[C@H]1C[C@@H](C)C(=O)/C=C/C(C)=C/[C@H](C)[C@@H](CC)OC(=O)C[C@@H](O)[C@H](C)[C@H]1O[C@@H]1O[C@H](C)[C@@H](O)[C@H](N(C)C)[C@H]1O
> 128,0.5,0.5,0.5,0.5,8,CC[C@H]1OC(=O)C[C@@H](O)[C@H](C)[C@@H](O[C@@H]2O[C@H](C)[C@@H](O[C@H]3C[C@@](C)(O)[C@@H](O)[C@H](C)O3)[C@H](N(C)C)[C@H]2O)[C@@H](CCOc2ccc(OC(C)=O)cc2)C[C@@H](C)C(=O)/C=C/C(C)=C/[C@@H]1CO[C@@H]1O[C@H](C)[C@@H](O)[C@@H](OC)[C@H]1OC
> 128,1,1,16,2,> 128,CC[C@H]1OC(=O)C[C@@H](O)[C@H](C)[C@@H](O[C@@H]2O[C@H](C)[C@@H](O[C@H]3C[C@@](C)(O)[C@@H](O)[C@H](C)O3)[C@H](N(C)C)[C@H]2O)[C@@H](CCOc2cc(Cl)cc(Cl)c2)C[C@@H](C)C(=O)/C=C/C(C)=C/[C@@H]1CO[C@@H]1O[C@H](C)[C@@H](O)[C@@H](OC)[C@H]1OC
> 128,> 128,128,> 128,128,> 128,CC[C@H]1C[C@@H](C)C(=O)/C=C/C(C)=C/[C@H](CO)[C@@H](CC)OC(=O)C[C@@H](O)[C@H](C)[C@H]1O[C@@H]1O[C@H](C)[C@@H](O[C@H]2C[C@@](C)(O)[C@@H](O)[C@H](C)O2)[C@H](N(C)C)[C@H]1O
> 128,8,4,32,4,> 128,CC[C@H]1OC(=O)C[C@@H](O)[C@H](C)[C@@H](O[C@@H]2O[C@H](C)[C@@H](O[C@H]3C[C@@](C)(O)[C@@H](O)[C@H](C)O3)[C@H](N(C)C)[C@H]2O)[C@@H](CCOC(C(F)(F)F)C(F)(F)F)C[C@@H](C)C(=O)/C=C/C(C)=C/[C@@H]1CO[C@@H]1O[C@H](C)[C@@H](O)[C@@H](OC)[C@H]1OC
> 128,64,64,8,64,128,CC[C@H]1OC(=O)C[C@@H](O)[C@H](C)[C@@H](O[C@@H]2O[C@H](C)[C@@H](O[C@H]3C[C@@](C)(O)[C@@H](O)[C@H](C)O3)[C@H](N(C)C)[C@H]2O)[C@@H](CCN2C(=O)c3ccccc3C2=O)C[C@@H](C)C(=O)/C=C/C(C)=C/[C@@H]1C
128,1,0.5,8,2,128,CC[C@H]1OC(=O)C[C@@H](O)[C@H](C)[C@@H](O[C@@H]2O[C@H](C)[C@@H](O[C@H]3C[C@@](C)(O)[C@@H](O)[C@H](C)O3)[C@H](N(C)C)[C@H]2O)[C@@H](CCOc2ccc(OC)cc2)C[C@@H](C)C(=O)/C=C/C(C)=C/[C@@H]1CO[C@@H]1O[C@H](C)[C@@H](O)[C@@H](OC)[C@H]1OC

# Source: ChEMBL document CHEMBL1124186, “Synthesis and evaluation of tylosin-related macrolides modified at the aldehyde function: a new series of orally effective antibiotics” (1988)
